The values below come from PMC4664883, “Selective targeting of nuclear receptor FXR by avermectin analogues with therapeutic effects on nonalcoholic fatty liver disease” (Scientific Reports, 2015).

SMILES strings stand for the structures.

The subject of data set [1] is mice. Also on record: method as in PMID 19072826. The conditions noted are these: cited from earlier work.
The test system of another data set is FXR A291W mutation. Briefly: Reporter assay with mutated FXR. The class given is cell-based. The conditions noted are these: 1 μM, Fig. 8e. In general terms: A reporter such as luciferase makes a cellular process visible.
The test system of another data set is FXR N283L mutation. Nature of the data set: Reporter assay with mutated FXR. Conditions: 1 μM, Fig. 8e. The format is cell-based. The text has this: R331M mutation was supposed to strengthen the hydrophobic interactions by displacing the corresponding residue of polar arginine to a hydrophobic methionine (Fig. 8b). Accordingly, this mutation increased the ability to be activated by avermectin ligands (Fig. 8e). For H447F mutation, the corresponding residue of histidine with a side chain of imidazole group was replaced by the nonpolar phenylalanine with a side chain of benzene ring (Fig. 8c). […] N283L mutation disrupts a key hydrogen bond between FXR and avermectin compounds (Fig. 8d).

Another data set concerns KK-Ay mice. Briefly: High-fat diet fed KK-Ay mice treated 14 days (liver histology, metabolic parameters, GTT, ITT). The format is in vivo. The conditions noted are these: KK-Ay mice, high-fat diet, i.p. once daily 14 days; avermectin analogues 1.3 mg/kg, GW4064 30 mg/kg. The procedure:
To further confirm the lipid accumulation, we performed oil red O staining of the frozen liver sections (Fig. 2c).
10 weeks age KK-Ay mice and C57BL/6J, homozygous FXR deficient (FXR^–/–) mice were maintained under environmentally controlled conditions with free access to standard chow diet and water as described previously. Animal experiments were conducted in the barrier facility of the Laboratory Animal Center, Xiamen University, approved by the Institutional Animal Use and Care Committee of Xiamen University, China, and the methods were carried out in accordance with the approved guidelines. Mice were fed with high fat diet containing 60% fat, 20% protein and 20% carbohydrate (Research Diets, D12492, New Brunswick, USA), and the food intake were measured every second day. […] After 6 h fasting, mice were weighed and sacrificed. Livers were weighed and taken photos, and part of each liver was fixed in 4% paraformaldehyde. Liver histology characterization was analyzed by haematoxylin and eosin (H&E) staining with paraffin-embedded sections by standard procedures. Other tissues were collected and frozen in liquid nitrogen for use, and serums were collected to measure metabolite parameters.
Fresh liver tissues were embedded in optimum cutting temperature compound (OCT) and cryosectioned. The sections were fixed in 4% paraformaldehyde in PBS, and were stained with 0.3% oil red O according to standard procedures.
Mice treated with compounds for 10 days were fasted for 6 h with free access to water. For the glucose tolerance test (GTT), 1 g/kg of glucose was i.p. injected and blood glucose was measured with the Accu-Check Performa (Roche Applied Science, Mannheim, Germany) at 0, 30, 60, 90, 120,150 and 180 min. For the insulin tolerance test (ITT), 1 U/kg of recombinant human insulin (Novolin 30R; Novo Nordisk, Bagsvaerd, Denmark) was i.p. injected, and blood glucose was measured at 0, 30, 60, 120 and 150 min after insulin injection.
Serum glucose was analyzed using glucose oxidase method (Applygen, Beijing, China). Serum cholesterol and triglyceride were analyzed using Cholesterol Assay Kit and Triglyceride Assay Kit (Bioassay Systems, USA), respectively. Liver triglyceride was analyzed using Tissue triglyceride assay kit (Applygen, Beijing, China).

Details of data set [2]: method as in PMID 10956205, PMID 25388536, PMID 19586769. Conditions: in rat; cited from earlier work.
In data set [3] the test system is mice. Details: method as in PMID 21632533. Conditions: cited from earlier work.
The next data set has as its system medaka eleutheroembryo. Conditions: cited from earlier work.

Take `C[C@H](CCC(=O)O)[C@H]1CC[C@H]2[C@@H]3[C@H](O)C[C@@H]4C[C@H](O)CC[C@]4(C)[C@H]3CC[C@]12C` [CDCA, chenodeoxycholic acid]: the “liver effect of CDCA-rich diet” value in the data set with mice [1] was “induce liver hypertrophy”.
Regarding `CC(C)c1onc(-c2c(Cl)cccc2Cl)c1COc1ccc(/C=C/c2cccc(C(=O)O)c2)c(Cl)c1` [GW4064], the “transcriptional activity of A291W mutated FXR” value in the data set with FXR A291W mutation was “abolished the transcriptional activity”. In addition, the “transcriptional activity of N283L mutated FXR” value in the data set on FXR N283L mutation is reported as “retained the ability to be activated”. In the data set on KK-Ay mice, the “hepatic lipid / steatosis by H&E staining of liver sections” value is “slightly reduced the hepatic lipid”, the “lipid accumulation by oil red O staining of liver sections” value was “slightly reduced the lipid accumulation” and the “liver morphology (colour)” value was “a little fresh red”. Moreover, the t1/2 in data set [2] is on record as below 1 h. Besides, the “body weight and fat effect” value in the data set on mice [3] was “weight gain and fat accumulation”. Also, the hepatobiliary toxicity result with medaka eleutheroembryo was “hepatobiliary injury”.
